What was measured:
[1] = test system: rats fed a calcium-deficient diet; test: Effects on urinary excretion of calcium (metabolic cage); assay type: in vivo, rat; settings: total for three days, 40 mL of water containing the substance, FIG. 2
Protocol: (§1) […]. Male Wistar rats weighing 200-250 g, and about 120 g especially in the experiment of studying calcium born absorption (Test Example 3), were used as an experimental animal.
Usually, calcium concentrations in blood are constantly maintained by biogenic homeostasis and it is difficult to utilize it as an index of calcium absorption. Accordingly, the urinary excretion of calcium was assayed in place of it.
Rats were kept in a metabolic cage and 40 mL of water containing calcium (Ca), Gum Arabic (GA), or Ca and GA (Ca+GA) was given for three days. […]. After recovering urine, urinary concentration of calcium and urine volume were measured.

[2] = test system: rats fed a calcium-deficient diet; test: Effects on bone absorption of calcium (30-day oral administration); assay type: in vivo, rat; settings: 30 days, 1 mg (Ca)/day, GA coadministered with Ca, compared with the Ca-treated group, FIG. 6
Excerpt: as §1
Next, it was studied whether the accelerating effect of GA on calcium absorption reaches bone absorption, and prevents the decease of calcium content in the bone, using rats fed a calcium-deficient diet.
Calcium (Ca-treated group), or calcium and GA ([Ca+GA]-treated group) were orally administered to rats for 30 days with an amount of 1 mg (ca)/day, and changes of hardness and mineral (Ca, Mg, P, Zn) content of the femur, or ALP in blood were observed. Rats were fed a calcium-deficient diet in order to eliminate an effect of calcium contained in the normal diet.

Structure (SMILES): C[C@H](O)C(=O)[O-].C[C@H](O)C(=O)[O-].[Ca+2] [Ca, calcium L-lactate]
- urinary excretion of calcium [1]: not increased
- ALP in blood [2]: elevation of ALP in blood was observed
